# Tests used:
# mice [1] = experiment: Elevated plus maze test (EPM); assay type: in vivo
# Protocol: The tests were performed on male white mice of the Albino Swiss strain, whose weight was between 24 and 30 g in Experimental Medicine Center, Medical University of Lublin, Poland. The animals were housed (four/five per cage). Before conducting the experimental tests, the animals were subjected to an adaptation that lasted seven days. This consisted of keeping them in a room with relatively constant conditions: a temperature of 22 ± 1 °C, a humidity of 55 ± 5% and lighting that mimicked the natural day and night rhythm (12 h/12 h). Constant access to food and water was provided. Standard feed—LSM Motycz pelleted feed—and tap water were used. Mice were randomly allocated to study groups. Each group was represented by 8–10 animals, depending on the research schedule. The experiments were performed according to the procedures set out in the regulations for animal experiments: National Institute of Health Guidelines for the Care and Use of Laboratory Animals (8th edition) and to the European Community Council Directive for the Care and Use of Laboratory Animals of 22 September 2010 (2010/63/EU). The study was approved by the Local Ethical Committee in Lublin (number of ethical approvals: 27/2023). Tested compounds: FG‐1, FG‐4, FG‐5, FG‐6, FG‐7, FG‐8, and FG‐18 were finely ground in mortars with the addition of the emulsifier Tween‐80. A suspension was obtained, which was then diluted with aqueous solution of 0.5% methylcellulose (tylose). The mixture was then administered intraperitoneally (i.p.) to the animals 60 min before the start of the experiments. Animals in the control groups received a 0.5% tylose solution. All substances were administered via the same route of administration in appropriate dose and volume of 0.1 mL per 10 g of animal body weight. Prior to the administration of the drug, the animals were weighed, during the interval between tests, they were provided with food, water, and constant living conditions. The EPM test is performed using an apparatus developed by Lister;^[ [44] ^] it consists of two open arms (30 × 5 cm) and two enclosed arms (30 × 5 × 15 cm) and a central platform (5 × 5 cm) it is placed at a height of 45 cm from the floor. The labyrinth was made of Plexiglas. The experiments were conducted in a darkened and quiet room. The central square of the maze was evenly illuminated with a dull red light. In the test, the mouse is observed for 5 min, and the number of entries into the open and closed arms and the time spent in them are recorded. The person carrying out the experiment remains constantly in the same place. Entering an individual arm is considered when the mouse has placed all four limbs outside the central square. The experiment measures: 1) the time spent by the mouse into the open arms of the maze, expressed as a percentage of the total exploration time, 2) the number of entries into the open arms of the maze, expressed as a percentage of the total number of entrances to both types of arms, and 3) the total number of entries into all arms of the maze—as a locomotor activity of the animals. If the mouse spends more time in the open arms than in the closed arms, this indicates an anxiolytic effect of the compounds tested. Exposed arms pose a risk of falling and therefore act as a mild stressor. Anxious mice are more likely to switch between open and enclosed arms and spend more time in enclosed arms than less anxious mice.^[ [11], [17], [44], [45] ^]
# mice [2] = experiment: MK‐801‐induced hyperactivity test; assay type: in vivo; conditions: 30 mg/kg i.p. 60 min before test, MK‐801 0.3 mg kg^−1 s.c., 20 min observation
# Protocol: The tests were performed on male white mice of the Albino Swiss strain, whose weight was between 24 and 30 g in Experimental Medicine Center, Medical University of Lublin, Poland. The animals were housed (four/five per cage). Before conducting the experimental tests, the animals were subjected to an adaptation that lasted seven days. This consisted of keeping them in a room with relatively constant conditions: a temperature of 22 ± 1 °C, a humidity of 55 ± 5% and lighting that mimicked the natural day and night rhythm (12 h/12 h). Constant access to food and water was provided. Standard feed—LSM Motycz pelleted feed—and tap water were used. Mice were randomly allocated to study groups. Each group was represented by 8–10 animals, depending on the research schedule. The experiments were performed according to the procedures set out in the regulations for animal experiments: National Institute of Health Guidelines for the Care and Use of Laboratory Animals (8th edition) and to the European Community Council Directive for the Care and Use of Laboratory Animals of 22 September 2010 (2010/63/EU). The study was approved by the Local Ethical Committee in Lublin (number of ethical approvals: 27/2023). Tested compounds: FG‐1, FG‐4, FG‐5, FG‐6, FG‐7, FG‐8, and FG‐18 were finely ground in mortars with the addition of the emulsifier Tween‐80. A suspension was obtained, which was then diluted with aqueous solution of 0.5% methylcellulose (tylose). The mixture was then administered intraperitoneally (i.p.) to the animals 60 min before the start of the experiments. Animals in the control groups received a 0.5% tylose solution. All substances were administered via the same route of administration in appropriate dose and volume of 0.1 mL per 10 g of animal body weight. Prior to the administration of the drug, the animals were weighed, during the interval between tests, they were provided with food, water, and constant living conditions. […]
# [3] = 30 mg kg^−1 i.p. 60 min before test
# [4] = 15 mg kg^−1 i.p. 60 min before test
Structure (SMILES),"EPM, percentage of the open arm entries (mice [1]; [3])","EPM, percentage of time spent in open arms (mice [1]; [3])",MK‐801‐induced hyperactivity (mice [2]),"EPM, percentage of the open arm entries (mice [1]; 7.5 mg kg^−1 i.p. 60 min before test)","EPM, percentage of the open arm entries (mice [1]; [4])","EPM, percentage of time spent in open arms (mice [1]; [4])"
"O=C(NCCCN1CCN(c2ccccc2C2=NCCS2)CC1)c1ccccn1 [FG‐1, N‐(3‐(4‐(2‐(4,5‐dihydrothiazol‐2‐yl) phenyl) piperazin‐1‐yl) propyl) picolinamide]",increase in the percentage of open arm entries,significant increase in time spent in open arms,significant decrease in MK‐801‐induced hyperactivity,–,–,–
"O=C(NCCCN1CCN(c2ccccc2C2=NCCS2)CC1)c1ccncc1 [FG‐4, N‐(3‐(4‐(2‐(4,5‐dihydrothiazol‐2‐yl) phenyl) piperazin‐1‐yl) propyl) isonicotinamide]",–,–,significant decrease in MK‐801‐induced hyperactivity,–,–,–
"O=C(NCCCN1CCN(c2ccc(C3=NCCS3)cc2)CC1)c1ccncc1 [FG‐6, N‐(3‐(4‐(4‐(4,5‐dihydrothiazol‐2‐yl) phenyl) piperazin‐1‐yl) propyl) isonicotinamide]",–,–,significant decrease in MK‐801‐induced hyperactivity,increase in the percentage of open arm entries,increase in the percentage of open arm entries,significant increase in time spent in open arms
"O=C1C2C3C=CC(C3)C2C(=O)N1OCCCN1CCN(c2ccccc2C2=NCCS2)CC1 (centres unmarked) [FG‐7, 2‐(3‐(4‐(2‐(4,5‐dihydrothiazol‐2‐yl) phenyl) piperazin‐1‐yl) propoxy)‐3a,4,7,7a‐tetrahydro‐1 H‐4,7‐methanoisoindole‐1,3(2 H)‐dione]",increase in the percentage of open arm entries,–,–,–,–,significant increase in time spent in open arms
"O=C(NCCCN1CCN(c2ccc(C3=NCCS3)cc2)CC1)C1CC2C=CC1C2 (stereo not drawn) [FG‐18, Endo‐ N‐(3‐(4‐(4‐(4,5‐dihydrothiazol‐2‐yl)phenyl)piperazin‐1‐yl)propyl) bicyclo[2.2.1]hept‐5‐ene‐2‐carboxamide]",–,significant increase in time spent in open arms,–,–,–,–
